Non-standard residues stand in square brackets, D forms with d. No end group written: not given here.
Assays:
[1] = tested on: diet-induced NASH; type: in vivo, mice; settings: for NASH-diet-induced hepatomegaly and yellowish coloration: leucine 0.17, glycine 0.33, DT-109 0.125 or 0.5 mg/g/day
[2] = tested on: blood glucose; assay: OGTT and non-fasting/endpoint blood glucose in WD-fed apoE−/− mice; type: in vivo; settings: for Endpoint glucose levels, lower by: following a 6 h fast, after 12 weeks, vs WD+H2O; for Non-fasting blood glucose 30 min post-gavage vs pre-gavage, decreased by: routine oral gavage, glycine 0.67, leucine 0.33, DT-109/DT-110 1 mg/g; for Acute OGTT: blood glucose 30 min after glucose with treatment / Acute OGTT: blood glucose at later time points (60-120 min): week 10, overnight fast, oral; for Acute OGTT: blood glucose 30 min after glucose with treatment: glucose 2 mg/g plus glycine 0.67, leucine 0.33, DT-109 or DT-110 1 mg/g; for Acute OGTT: blood glucose at later time points (60-120 min): glucose 2 mg/g plus treatment
Excerpt: (§1) Eight-week-old male apolipoprotein E-deficient (apoE−/−) mice (B6.129P2-Apoetm1Unc/J, Stock No.: 002052) were obtained from Jackson Laboratories. Mice were fed Western diet (WD, 42% of calories from fat and 0.2% cholesterol by weight, Envigo TD.88137). After one week of WD feeding, blood was carefully collected from the facial vein to determine baseline plasma levels of total cholesterol (TC). […] All mice were maintained on a 12-hour light/dark cycle and had ad libitum access to food and water. Body weight and food intake were measured every one and three weeks, respectively
At week 10, oral glucose tolerance tests (OGTT) were performed following an overnight fast by administering 2 mg/g of glucose via oral gavage. […] To evaluate the chronic effects of the treatments, mice were administered with glucose alone. […] Then, mice were administered with glucose with (acute) or without (chronic) treatments and blood glucose levels were measured every 30 min for up to 120 min. To assess the effects of the treatments on non-fasting glucose levels, blood was collected from the tip of the tail before routine administration of treatments via oral gavage (pre-gavage) and 30 min afterwards (post-gavage).
OGTT were performed after 12 h fasting.

[3] = tested on: WD-induced hepatic steatosis; assay: Liver H&E/ORO histology and hepatic lipid (TG, TC) quantification in WD-fed apoE−/− mice; type: in vivo; settings: for Hepatic steatosis by H&E staining / HS by histology and lipid quantification: apoE−/− mice on WD; for Hepatic steatosis by H&E staining: 12 weeks; for HS by histology and lipid quantification: endpoint (FIG. 16A-C); for Hepatic TC, decreased by / Hepatic TG, decreased by: extracted hepatic lipids, endpoint, vs WD+H2O
Excerpt: as §1
Histology processing was performed by the In Vivo Animal Core (IVAC) Histology Laboratory within the Unit for Laboratory Animal Medicine (ULAM) of the University of Michigan. Formalin-fixed tissues were processed through graded alcohols and cleared with xylene followed by infiltration with molten paraffin using an automated VIP5 or VIP6 tissue processor (TissueTek, Sakura-Americas). Following paraffin embedding using a Histostar Embedding Station (ThermoFisher Scientific), tissues were sectioned on a M 355S rotary microtome (ThermoFisher Scientific) at 4 μm thickness and mounted on glass slides. Following deparaffinization and hydration with xylene and graded alcohols, slides were stained for hematoxylin and eosin (H&E) using Harris hematoxylin (ThermoFisher Scientific, Cat #842), differentiated with Clarifier (ThermoFisher Scientific, Cat #7401), blued with bluing reagent (ThermoFisher Scientific, Cat #7301), stained with eosin Y, alcoholic (ThermoFisher Scientific, Cat #832), then dehydrated and cleared through graded alcohols and xylene and coverslipped with Micromount (Leica cat #3801731) using a Leica CV5030 automatic coverslipper. Immunohistochemical staining was performed on an IntelliPATH FLX automated immunohistochemical stainer (Biocare Medical, Cat #IPS0001US) and included blocking for endogenous peroxidases and non-specific binding, detection using a horseradish peroxidase biotin-free polymer based commercial detection system, disclosure with diaminobenzidine chromogen, and nuclear counterstaining with hematoxylin. Specific to F4/80, (Bio-Rad ABD Serotec, Cat #MCA497), the rat monoclonal primary antibody (clone CI:A3-1) was diluted to 1:400 in DaVinci Diluent (Biocare Medical, Cat #PD900) and incubated for 60 min followed by detection using Rat-on-Mouse HRP-Polymer, (Biocare Medical, Cat #RT517) 2-step probe-polymer incubation for 10 and 30 min respectively.
Livers were rapidly removed from the euthanized mice and kept at −80° C. Frozen liver samples (approximately 100 mg) were homogenized in PBS and centrifuged (14,000 RPM, 20 min). The supernatants were collected and analyzed for protein content by the Bio-Rad Bradford assay. To assess liver lipid composition, lipids were extracted from the supernatants using hexane ([…], 32293, Sigma-Aldrich) and isopropanol (≥99.5%, A426-4, Fisher Scientific) at a 3:2 ratio (v:v), and the hexane phase was left for evaporation for 48 h. The amount of liver TG or TC was determined spectrophotometrically using commercially available kits (Wako Chemicals). Data were normalized to protein levels and presented as μg TG or TC/mg protein.
Livers were rapidly removed from the euthanized mice, snap-frozen with liquid nitrogen, and kept at −80° C. Frozen liver samples (100 mg) were homogenized in PBS and centrifuged (14,000 RPM, 20 min). The supernatants were collected and analyzed for protein content using Bio-Rad Bradford assay. To assess liver lipid composition, lipids were extracted from the supernatants using hexane (≥99%, Sigma-Aldrich 32293) and isopropanol (≥99.5%, Fisher Scientific A428-4) at a 3:2 ratio (v:v), and the hexane phase was left for evaporation for 48 h. […] Liver diacylglycerols (DAG) were determined using ELISA Kit (Aviva Systems Biology, OKEH02607), according to the manufacturer's instructions. Hepatic TG, TC and DAG data were normalized to protein levels.

[4] = Body weight, food intake and adiposity in apoE−/− mice fed Western diet; type: in vivo; settings: apoE−/− mice on WD; for Total gain in body weight from baseline to endpoint, lower by: 12 weeks oral gavage, DT-109 1 mg/g; for Gross appearance of the peritoneal cavities at endpoint (yellowish coloration of the liver, enlarged visceral fat pads): glycine 0.67, leucine 0.33, DT-109/DT-110 1 mg/g; for Adipocyte hypertrophy in EAT and SAT: H&E histology (FIG. 15L)
Excerpt: as §1, with “All animal procedures were approved by the Institutional Animal Care & Use Committee of the University of Michigan (PRO00008239) and performed in accordance with the institutional guidelines. Eight-week-old” for “Eight-week-old”
The experimental design is depicted in FIG. 1A. After one week of Western diet (WD) feeding to apoE−/− mice, blood was collected from the facial vein (FV) to determine baseline plasma levels of TC.
Animal procedures were approved (PRO00008239) by the Institutional Animal Care & Use Committee of the University of Michigan (U-M) and performed in accordance with the institutional guidelines. Seven weeks-old C57BL/6J or apoE−/− mice (B6.129P2-Apoetm1Unc/J, Stock:002052) were from Jackson Laboratories. AGXT1−/− mice on C57BL/6J background were generated using CRISPR/Cas9, with guide-RNA targeting exon 1 of AGXT1: 5′-[…]-3′.
Histological procedures were performed by technicians blinded to the experimental groups at the In Vivo Animal Core (IVAC) Histology Laboratory, University of Michigan. Formalin-fixed tissues were processed through graded alcohols and cleared with xylene followed by infiltration with molten paraffin using an automated VIP5 or VIP6 tissue processor (TissueTek, Sakura-Americas). Using a Histostar Embedding Station (ThermoFisher Scientific), tissues were then sectioned on a M355S rotary microtome (ThermoFisher Scientific) at 4 μm thickness and mounted on glass slides. Slides were stained for hematoxylin and eosin (H&E, ThermoFisher Scientific). For Sirius Red staining, slides were treated with 0.2 phosphomolybdic acid for 3 min and transferred to 0.1% Sirius Red saturated in picric acid (Rowley Biochemical Inc.) for 90 min, then transferred to 0.01N hydrochloric acid for 3 min.

| Compound | Adipocyte hypertrophy in EAT and SAT ([1]; NASH-diet, 0.5 mg/g/day DT-109) | NAS ([1]; endpoint, 0.5 mg/g/day DT-109) | F4/80 immunostaining in liver ([1]; endpoint, NASH-diet) | NASH-diet-induced hepatic fibrosis (Sirius Red and fibrosis scoring) ([1]; endpoint, NASH-diet) | NASH-diet-induced hepatomegaly and yellowish coloration ([1]; endpoint) | Glucose-lowering in OGTT and in non-fasting glucose ([2]; apoE−/− mice on WD, after 10 weeks, DT-109 1 mg/g/day vs equivalent leucine, glycine or H2O) | Endpoint glucose levels, lower by [2] | Non-fasting blood glucose 30 min post-gavage vs pre-gavage, decreased by [2] | Acute OGTT: blood glucose 30 min after glucose with treatment [2] | Acute OGTT: blood glucose at later time points (60-120 min) [2] | Hepatic steatosis by H&E staining [3] | HS by histology and lipid quantification [3] | Hepatic TC, decreased by [3] | Hepatic TG, decreased by [3] | Total gain in body weight from baseline to endpoint, lower by ([4]; glycine 0.67 mg/g, vs WD+H2O) | Gross appearance of the peritoneal cavities at endpoint (yellowish coloration of the liver, enlarged visceral fat pads) ([4]; 12 weeks) | Adipocyte hypertrophy in EAT and SAT [4] | Endpoint body weight, lower by ([4]; oral gavage 6 times per week, 12 weeks, glycine 0.67 mg/g, vs WD+H2O) |
| --- | --- | --- | --- | --- | --- | --- | --- | --- | --- | --- | --- | --- | --- | --- | --- | --- | --- | --- |
| Gly-Gly-Leu [DT-109] | decreased adipocyte hypertrophy | significantly decreased | attenuated | protective effects | markedly attenuated | most potent glucose-lowering effects | 30% | 21% | most significant effects | significantly decreased | abolished | reduced HS | 71% | 73% | 28% | attenuated | reduced | – |
| Gly-Gly-[dL] [DT-110] | – | – | – | – | – | – | – | 13% | – | significantly decreased | abolished | – | 63% | 68% | – | attenuated | – | – |
| NCC(=O)O [glycine, reference compound] | – | – | attenuated | protective effects | markedly attenuated | – | 41% | 10% | most significant effects | significantly decreased | abolished | reduced HS | 76% | 74% | 51% | attenuated | reduced | 12% |
| CC(C)C[C@H](N)C(=O)O [leucine] | – | – | significantly increased | but not leucine | – | – | – | trends towards increased blood glucose | – | – | marked microvesicular and macrovesicular steatosis | – | no significant effects | no significant effects | – | yellowish coloration of the liver and enlarged visceral fat pads | – | – |

— patent US20230181673A1, “TRI-PEPTIDES AND TREATMENT OF METABOLIC, CARDIOVASCULAR AND INFLAMMATORY DISORDERS” (Diapin Therapeutics, LLC, priority 2018, published 2023)
